Measurements published in patent publication US20170105981A1, “METHODS FOR STABILIZING HYPOXIA INDUCIBLE FACTOR-2 ALPHA AS A METHOD FOR TREATING CANCER” (The Ohio State Innovation Foundation, priority 2011, published 2017).

Columns and labels:
[1] = test system: phosphoglycerate kinase (PGK) mRNA; test: PGK mRNA expression (qPCR) in HIF-1α−/− fibroblasts; assay type: cell-based, murine; conditions: hypoxic conditions (1% O2), 1, 10 and 100 μM, vs. hypoxia control, FIG. 2B
Procedure: Total RNA was isolated from tissues and cells by using TRIzol™ Reagent (Invitrogen) and the RNeasy kit (Qiagen), respectively. 1 μg RNA was used for reverse transcription using SuperScript II First-Strand Synthersis System (Invitrogen). cDNA's were amplified in a SYR Green or TaqMan Universal Master Mix (Applied Biosystems). Quantitative PCR (qPCR) was performed on ABI Prism 7700 sequence detection system. PCR conditions are: 10 min at 95° C., 40 cycles of 15 seconds at 95° C. and 1 minute at 60° C. The relative amount of mRNA was calculated after normalization to β-actin.
Cells were cultured in DMEM (#11965-092, Invitrogen) supplemented with 10% fetal bovine serum (Invitrogen), 100 U/mL penicillin and […] streptomycin. For glucose deprivation, DMEM without glucose (#11966-025, Invitrogen) was used.
Mouse embryonic fibroblasts (MEFs) were isolated from E12.5 embryos and immortalized by stable transfection with SV40 large T antigen.

[2] = test system: Pmel17 mRNA; test: Evaluation of lung metastases by Pmel17 mRNA in lungs of B16F10 tumor-bearing mice; assay type: in vivo; conditions: stabilizer I.P., GM-CSF I.T., vs vehicle control; FIG. 5
Procedure: Lung metastases were evaluated by detection of mRNA for melanocyte-specific proteins within the lungs of tumor-bearing mice. B16F10 tumor-bearing mice were treated with GM-CSF and/or the disclosed HIF-2α stabilizer, as depicted in FIG. 3. At the time of sacrifice, lungs were excised and flash-frozen in liquid nitrogen. Frozen lungs were homogenized in liquid nitrogen and the pulverized material was dissolved in TRIzol™ reagent (Invitrogen). […] The melanocyte-specific Pmel17 was detected by nested PCR using a modification of the protocol described by Tsukamoto et al. For the initial reaction, 30 cycles of PCR were carried out (95° C. for 1 minute, 58° C. for 1 min, 72° C. for 1 min) in a 20 μL reaction volume containing 2 μL of cDNA. […] Data were analyzed according to the comparative threshold method and normalized against the GAPDH internal control transcript. Results are semi-quantitative and represent the fold difference in transcript levels in vehicle-treated control mice as compared with levels in mice treated with the disclosed HIF-2α stabilizer and/or GM-CSF.
Lung metastases were evaluated by detection of mRNA for melanocyte-specific proteins within the lungs of tumor-bearing mice. […] Data were analyzed according to the comparative threshold method and normalized against the β-actin internal control transcript. […]

[3] = test system: HIF-2α; test: Immunoblot for HIF-2α in murine bone marrow-derived macrophages; assay type: cell-based; conditions: murine bone marrow-derived macrophages treated 18 hours; p=0.001; FIG. 11A
Procedure: (§1) To generate bone marrow-derived macrophages (BDMs), femoral bone marrow was isolated and progenitor cells were plated in RPMI-1640 supplemented with 10% FBS, 1% PSA, 10 μg/mL of polymyxin B, and 20 ng/mL of recombinant murine M-CSF. Cells were cultured for 5 days with the addition of fresh M-CSF every other day. Differentiated BDM were serum-starved for 2 hours and then treated with 100 ng/mL of murine GM-CSF and/or 25 μM the disclosed HIF-2α stabilizer in RPMI-1640 containing 1% FBS and 10 μg/mL polymixin B. Culture supernatants were collected after 72 hours and assayed for VEGF and sVEGFR-1 content by ELISA (R&D Systems).
(§2) In order to confirm the selective upregulation of HIF-2α by the disclosed HIF-2α stabilizer, murine bone marrow-derived macrophages were treated with the disclosed HIF-2α stabilizer for 18 hours, and cells were then lysed and immunoblotted for HIF-1α and HIF-2α.

[4] = test system: HIF-1α; test: Immunoblot for HIF-1α in murine bone marrow-derived macrophages; assay type: cell-based; conditions: murine bone marrow-derived macrophages treated 18 hours; p=0.105; FIG. 11A
Procedure: as §1, §2

[5] = test system: endothelial cell marker CD31; test: Tumor vascularity by CD31 immunohistochemistry in melanoma-bearing mice; assay type: in vivo; conditions: mice treated with the control antibody; p=0.022; FIG. 14B
[6] = test system: A375 human melanoma cells; test: A375 human melanoma tumors in SCID mice; assay type: in vivo; conditions: at the time of sacrifice; stabilizer 17 mg/kg, docetaxel 1 mg/kg, IP 3 times per week
Procedure: 6-8-week-old C57BL/6 mice or SCID mice were injected with 1×10^5 B16F10 murine melanoma cells or 1×10^6 A375 human melanoma cells, respectively, subcutaneously on the left flank. […] Tumor diameters were measured 3 times per week with calipers, and tumor volumes will be calculated as follows: Tumor volume=0.5×[(large diameter)×(small diameter)^2].
In the study, immunocompromised SCID mice were inoculated with A375 human melanoma tumors subcutaneously. Starting when the tumors became palpable (7 days after injection), mice were treated with either the cytotoxic chemotherapy docetaxel or with the disclosed HIF-2α stabilizer. The disclosed HIF-2α stabilizer was given at a dose of 17 mg/kg, and the docetaxel was given at 1 mg/kg. Both drugs were given IP 3 times per week. […] At the time of sacrifice, the tumors in the mice that received only the disclosed HIF-2α stabilizer were approximately 78% of the size of the control tumors, the tumors of the mice that received only chemotherapy were approximately 50% of the size of the control tumors, and the tumors of the mice that received both drugs were approximately 16% of the size of the control tumors.

## O=C(O)CNC(=O)c1ncc(-c2cccc(F)c2)cc1O [disclosed HIF-2α stabilizer, {[5-(3-Fluorophenyl)-3-hydroxypyridine-2-carbonyl]amino} acetic acid]
[1]
  PGK mRNA (relative amount): dramatic reduction
[2]
  relative metastasis to the lung (Pmel17 mRNA expression): reduced metastasis
[3]
  HIF-2α protein: increase
[4]
  HIF-1α protein: no corresponding increase
[5]
  tumor vascularity (CD31): decreased tumor vascularity
[6]
  tumor size as % of the size of the control tumors: approximately 78%
